Values after ≈ are worked out from the molar mass of the structure shown.
Tested on: HIV 1
Experiment: Inhibition of HIV-induced syncytium formation in cultures of human lymphocytes (test of preparations against HIV in cell culture, microscopic reading on day 4 after infection)
Assay type: cell-based
Details: Human immunodeficiency virus 1, 96 h, footnote of Tabelle 1, AZT alone, read-out: MHK-Wert
Experimental: RPMI pH 6,8 Komplettes Medium enthält zusätzlich 20 % foetales Kälberserum und 20 IU/ml rekombinantes Interleukin 2.
Aus frischem Spenderblut mittels Ficoll^R-Gradientenzentrifugation isolierte Lymphozyten werden unter Zusatz von 2 µg/ml Phytohämagglutinin (Wellcome) in komplettem Medium 36 h bei 37°C unter 5 % CO₂ kultiviert. Die Zellen werden nach Zusatz von 10 % DMSO bei einer Zelldichte von 5 x 10⁶ eingefroren und in flüssigem Stickstoff gelagert. Für den Versuch werden die Zellen aufgetaut, in RPMI-Medium gewaschen und in komplettem Medium 3 - 4 Tage kultiviert.
Die Prüfpräparate werden in komplettem Medium gelöst, üblicherweise in einer Konzentration von 1,2 mg/ml. In 24er Multiwell-Schalen werden jeweils 0,5 ml komplettes Medium gegeben. Nach Zusatz von 0,1 ml des gelösten Präparates wird durch Übertragung von jeweils 0,1 ml das Präparat in einer geometrischen Verdünnungsreihe, […], verdünnt. Zu allen Ansätzen werden 0,4 ml einer Suspension mit 5 x 10⁵ Lymphozyten pro ml gegeben.
Die Ansätze werden mit 0,1 ml eines Überstandes von HIV 1 infizierten Lymphozyten versetzt, der so eingestellt ist, daß im Ansatz der cytopathogene Effekt nach 3 - 4 Tagen erkennbar ist. Die Multiplizität der infektiösen Einheit beträgt hierbei 0,01 - 0,02.
Der Versuchsansatz enhält damit folgende Komponenten in komplettem Medium [formula] […]

## Cc1cn([C@H]2C[C@H](N=[N+]=[N-])[C@@H](CO)O2)c(=O)[nH]c1=O [3′-Azido-3′-deoxythymidin]
  MIC: 0.1 µg/mL (≈ 0.374 µM)

Source: patent publication EP0377846A1, “Pharmaceutical mixture preparation containing nucleoside derivatives and pentosan polysulfate, and its manufacture and use” (HOECHST AKTIENGESELLSCHAFT, priority 1988, dated 1990)
